This is an account of results in doi:10.1101/362293v1 (biorxiv, 2018).

Experiment [1] concerns the target T1, CobB (Escherichia coli, UniProt P75960).
T1 sequence (P75960 1-279): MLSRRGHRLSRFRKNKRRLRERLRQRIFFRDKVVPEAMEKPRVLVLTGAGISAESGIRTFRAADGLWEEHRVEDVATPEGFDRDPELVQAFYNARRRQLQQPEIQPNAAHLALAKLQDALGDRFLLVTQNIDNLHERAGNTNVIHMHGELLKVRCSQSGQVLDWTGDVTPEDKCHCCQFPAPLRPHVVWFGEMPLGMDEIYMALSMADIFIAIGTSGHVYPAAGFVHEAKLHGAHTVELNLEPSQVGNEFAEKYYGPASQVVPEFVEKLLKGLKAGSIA
Briefly: deacetylation of an acetylated peptide, HPLC. It is filed as biochemical.

For experiment [2], the target named is T1, CobB. Briefly: isothermal titration calorimetry. It is filed as binding.
Experiment [3] concerns the target T2, CobB (Escherichia coli, UniProt P75960, R8A).
T2 sequence (P75960 1-279 R8A): T1 sequence (P75960 1-279) with R8A
Briefly: isothermal titration calorimetry. The class given is binding. In general terms: ITC needs no label: the signal is the heat of the interaction.

In experiment [4] the target is T3, CobB (Escherichia coli, UniProt P75960, E21A).
T3 sequence (P75960 1-279 E21A): T1 sequence (P75960 1-279) with E21A
Description: isothermal titration calorimetry. It is filed as binding.

In experiment [5] the target is T4, S. typhimurium CobB; CobB^S. typhimurium (Salmonella enterica, UniProt P0A2F2).
T4 sequence (P0A2F2 1-273): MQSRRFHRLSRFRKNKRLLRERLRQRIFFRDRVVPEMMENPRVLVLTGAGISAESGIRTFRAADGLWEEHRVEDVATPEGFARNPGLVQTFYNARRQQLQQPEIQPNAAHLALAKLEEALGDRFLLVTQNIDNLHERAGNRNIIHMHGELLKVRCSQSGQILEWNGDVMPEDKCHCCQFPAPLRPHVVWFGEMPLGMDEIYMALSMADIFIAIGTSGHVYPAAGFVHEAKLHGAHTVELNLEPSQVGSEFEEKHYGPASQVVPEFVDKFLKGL
Description: affinity measurement, method not given. It is filed as binding.

The target of experiment [6] is T5, CobB (Escherichia coli, UniProt P75960, R17A).
T5 sequence (P75960 1-279 R17A): T1 sequence (P75960 1-279) with R17A
Description: isothermal titration calorimetry. It is filed as binding.

Substitutions are numbered along the chain they refer to.

As usually defined, the Ki is the equilibrium dissociation constant of an inhibitor or competing ligand from its target. Higher therefore signals lower affinity. One may read the Kd as the concentration at which binding is half-saturated. Higher therefore signals weaker binding.

The compound `Nc1nc2c(ncn2[C@@H]2O[C@@H]3CO[P@](=O)(O)O[C@H]4[C@@H](O)[C@H](n5cnc6c(=O)[nH]c(N)nc65)O[C@@H]4CO[P@](=O)(O)O[C@H]3[C@H]2O)c(=O)[nH]1` [c-di-GMP] yielded a Ki at CobB [1] of 32.3 µM. Besides, the Kd at CobB [2] turned out to be 21.6 µM; on CobB [3] it was 1800 µM; on CobB [4], 320 µM; in experiment [5] it was 15.5 µM; on CobB [6] it was 1600 µM.
